Reference: patent publication US20230094545A1, “S1P RECEPTOR MODULATORS” (AKAAL PHARMA PTY LTD, priority 2020, published 2023)
Read-outs that look alike come from different tables or passages of the source.

Columns and labels:
[1] = Single oral dose in healthy human subjects: systemic exposure, heart rate, lymphopenia; assay type: in vivo; conditions: humans; for bradycardia: 0.5 mg to 12 mg single oral dose, 72 hours monitoring
Description: The observance of bradycardia with S1P1 selective agonists has been reported to be species specific.
Human subjects were treated in cohorts of different dose levels (each cohort=8 human subjects) with a compound of formula (I)@0.5 mg, 2 mg, 6 mg and 12 mg single oral dose.

arthritis pain = assay: Topical treatment of arthritis patients with pain; assay type: in vivo, human; conditions: for numerical rating scale for pain scoring (NRS): baseline Day 1 7.1±1.38
Description: (§1) Fifteen arthritis patients who were experiencing pain were treated with the compound of Formula I@60 mg daily dosing as a topical treatment for seven consecutive days. […] The subjects blood parameters, urine alysis, vital signs, physical examination, ECG were normal.
(§2) The numerical rating scale for pain scoring (NRS) in a compound of Formula I treated group […] reduced from 7.1±1.38 (Day 1; baseline) to 5.8±2.12 (Day 3) and 4.8±2.72 (Day 7). The mean NRS score change from baseline was −1.3±1.54 (Day 3) and −2.3±2.06 (Day 7) points in arthritis participants treated with compound of Formula I. In osteoarthritis participants, the mean change in pain score from Day 1 to Day 7 was of −1.9±1.46 and −1.9±1.57 for pain felt and worst pain felt in 24 hours, respectively. […] The systemic exposure on day 7 ranged from 0.42 ng/mL to 2.44 ng/mL (average 0.79 ng/mL).

[2] = Topical treatment of arthritis patients with pain; assay type: in vivo, human; conditions: human, in vivo, topical, 60 mg daily, day 7, 60 mg daily topical
Description: as §1, §2

For CCCOc1ccc(-c2nc(-c3ccc4oc(C(N)(CO)CO)cc4c3)no2)cc1Cl [compound of formula (I)], which systemic exposure ([1]; 0.5 mg single oral dose) is on record?
Its systemic exposure is 0.6 ng/mL.

What about the bradycardia [1] of the same compound?
Its bradycardia is “no bradycardia events”.

What about the bradycardia ([1]; listed as S1P1 receptor modulator of formula (I)) of the same compound?
The bradycardia was “did not induce bradycardia”.

What about the bradycardia ([1]; listed as compound of Formula I) of the same compound?
Its bradycardia is “no dose proportional or dose relevant bradycardia event”.

What about the systemic exposure ([1]; 2 mg single oral dose) of the same compound?
The systemic exposure was 2.4 ng/mL.

And the systemic exposure ([1]; 6 mg single oral dose)?
The systemic exposure was 7.1 ng/mL.

What about the systemic exposure ([1]; 12 mg single oral dose) of the same compound?
The systemic exposure was 18.8 ng/mL.

What about the lymphopenia ([1]; dose of ~0.17 mg/kg) of the same compound?
The lymphopenia was “no induction of significant lymphopenia”.

What about the systemic exposure ([1]; dose of ~0.17 mg/kg) of the same compound?
Its systemic exposure is 18.8 ng/mL.

What about the absolute lymphocyte count (arthritis pain; 60 mg daily topical, 7 days) of the same compound?
Its absolute lymphocyte count is “no systemic change in the absolute lymphocyte count”.

And the safety and tolerability (arthritis pain; 60 mg daily topical, seven days)?
The safety and tolerability was “safe and well tolerated”.

And the “mean NRS score change from baseline” value (arthritis pain; Day 3)?
The value was −1.3±1.54 points.

What about the “numerical rating scale for pain scoring (NRS)” value (arthritis pain; Day 3) of the same compound?
Its value is 5.8±2.12.

What about the “mean NRS score change from baseline” value (arthritis pain; Day 7) of the same compound?
Its value is −2.3±2.06 points.

And the “numerical rating scale for pain scoring (NRS)” value (arthritis pain; Day 7)?
The value was 4.8±2.72.

And the “positive PGART response” value (arthritis pain; all treated participants (n=12), Day 3, 60 mg daily topical)?
The value was 41.7 % participants.

And the “positive PGART response” value (arthritis pain; all treated participants (n=12), Day 7, 60 mg daily topical)?
Its value is 58.3 % participants.

What about the “mean change in pain score, pain felt” value (arthritis pain; osteoarthritis participants, Day 1 to Day 7, p=0.0153) of the same compound?
The value was −1.9±1.46.

What about the “mean change in pain score, worst pain felt in 24 hours” value (arthritis pain; osteoarthritis participants, Day 1 to Day 7, p=0.0205) of the same compound?
Its value is −1.9±1.57.

And the “positive PGART response” value (arthritis pain; participants with osteoarthritis, Day 3)?
The value was 28.6 % participants.

And the “positive PGART response” value (arthritis pain; participants with osteoarthritis, Day 7)?
The value was 57.1 % participants.

What about the concentration at 7 day ([2]; read-out: systemic exposure, average) of the same compound?
The concentration at 7 day was 0.79 ng/mL.

And the concentration at 7 day ([2]; read-out: systemic exposure, range)?
Its concentration at 7 day is 0.42 to 2.44 ng/mL.
